For 4 molecules, Emax and EC50 results are on record in patent US20230265151A1, “GIP/GLP1 CO-AGONIST COMPOUNDS” (priority 2020, published 2023).

Format in all cases: cell-based
For one assay, the target named is T1, hGIPR (Homo sapiens, UniProt P48546).
T1 construct: expressed in transfected cells
T1 sequence (P48546 22-466): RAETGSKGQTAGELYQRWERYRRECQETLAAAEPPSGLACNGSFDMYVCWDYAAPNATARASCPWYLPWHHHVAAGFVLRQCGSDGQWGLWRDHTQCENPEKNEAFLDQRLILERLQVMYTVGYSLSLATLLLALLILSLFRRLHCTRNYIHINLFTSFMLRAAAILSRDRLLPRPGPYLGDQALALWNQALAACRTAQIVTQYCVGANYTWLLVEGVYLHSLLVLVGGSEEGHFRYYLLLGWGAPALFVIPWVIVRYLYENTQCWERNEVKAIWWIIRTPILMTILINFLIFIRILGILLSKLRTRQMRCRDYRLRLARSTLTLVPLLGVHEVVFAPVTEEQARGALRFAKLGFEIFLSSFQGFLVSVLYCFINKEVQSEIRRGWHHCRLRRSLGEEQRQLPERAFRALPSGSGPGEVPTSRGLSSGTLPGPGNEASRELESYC
Put plainly: Functional cAMP formation (HTRF) in HEK-293 clonal cells expressing hGIPR, 0.1% bovine casein, without or with 1.0% human serum albumin. To be noted: for EC50: geometric mean, read-out: hGIPR EC50, nM (SEM, n). The method in brief: (§1)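 Cells were stimulated with peptide for 30 min at 37° C, then lysed in buffer carrying cAMP-d2 and anti-cAMP Eu3+-cryptate for a competitive HTRF read after at least 60 min at room temperature. The 665/620 nm ratio was converted to nM cAMP against a standard curve.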
On the technique in general: Changes in cAMP serve as a functional read-out for many G protein-coupled receptors.

The target of the next assay is T2, hGCGR (Homo sapiens, UniProt P47871).
T2 construct: expressed in transfected cells
The assay is described as follows: Functional cAMP formation (HTRF) in HEK-293 clonal cells expressing hGCGR, 0.1% bovine casein, without or with 1.0% human serum albumin. The conditions noted are these: geometric mean. An outline of the steps: as §1

In another assay the target is hGLP-1R (Homo sapiens, UniProt P43220). The assay is described as follows: Functional cAMP formation (HTRF) in HEK-293 clonal cells expressing hGLP-1R, 0.1% bovine casein, without or with 1.0% human serum albumin. On the set-up: expressed in transfected cells. To be noted: for EC50: geometric mean. An outline of the steps:
as §1

Setting [1] is: HEK293, 0.1% bovine casein and 1.0% human serum albumin, 37° C., percent of maximal response to GIP(1-42)NH2, read-out: hGIPR Emax, % ± SEM.
[2] abbreviates: 0.1% bovine casein and 1.0% human serum albumin, 37° C., read-out: hGCGR EC50, nM (SEM, n).
[3] abbreviates: HEK293, 0.1% bovine casein and 1.0% human serum albumin, 37° C., percent of maximal response to GLP-1(7-36)NH2, read-out: hGLP-1R Emax, % ± SEM.
Setting [4] is: HEK293, read-out: hGIPR Emax, % ± SEM, percent of maximal response to GIP(1-42)NH2, 37° C., 0.1% bovine casein, arithmetic mean.
[5] abbreviates: hGCGR EC50, nM (SEM, n), cAMP, incubated at 37° C., 0.1% bovine casein (no human serum albumin).

Like-named read-outs stand apart in the source and are kept apart here. Some results are limits rather than exact numbers.

hGLP-1R, sequence (P43220 24-463): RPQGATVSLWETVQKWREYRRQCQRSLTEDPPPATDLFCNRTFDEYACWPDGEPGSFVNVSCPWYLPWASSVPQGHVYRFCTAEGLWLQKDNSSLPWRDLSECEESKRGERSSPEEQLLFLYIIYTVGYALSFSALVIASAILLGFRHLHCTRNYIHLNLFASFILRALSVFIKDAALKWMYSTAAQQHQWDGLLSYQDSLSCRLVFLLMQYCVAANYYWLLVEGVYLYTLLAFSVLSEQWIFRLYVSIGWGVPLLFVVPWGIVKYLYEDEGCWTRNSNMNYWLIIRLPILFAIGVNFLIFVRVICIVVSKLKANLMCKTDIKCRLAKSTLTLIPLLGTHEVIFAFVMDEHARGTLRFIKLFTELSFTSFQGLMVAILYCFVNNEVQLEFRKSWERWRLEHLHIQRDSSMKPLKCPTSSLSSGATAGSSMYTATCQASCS
T2 sequence (P47871 26-477): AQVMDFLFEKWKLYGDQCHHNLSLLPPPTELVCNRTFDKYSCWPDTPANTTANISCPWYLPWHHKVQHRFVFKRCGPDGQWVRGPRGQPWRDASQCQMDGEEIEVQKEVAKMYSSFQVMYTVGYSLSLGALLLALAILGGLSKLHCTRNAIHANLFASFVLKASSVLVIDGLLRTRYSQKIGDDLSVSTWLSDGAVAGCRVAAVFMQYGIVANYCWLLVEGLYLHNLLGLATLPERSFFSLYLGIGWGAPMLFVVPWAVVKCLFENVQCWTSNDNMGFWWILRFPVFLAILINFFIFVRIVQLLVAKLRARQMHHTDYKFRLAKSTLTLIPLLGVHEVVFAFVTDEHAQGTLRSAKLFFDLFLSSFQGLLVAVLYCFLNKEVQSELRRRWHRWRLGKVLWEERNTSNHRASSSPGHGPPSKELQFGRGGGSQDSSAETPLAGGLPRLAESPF

What is called Emax is the size of the effect at its maximum, as opposed to the concentration needed. As a reminder, the EC50 is the concentration needed to bring the measured effect to its halfway point. `CC[C@H](C)[C@H](NC(=O)[C@H](CC(C)C)NC(=O)[C@](C)(Cc1ccc(O)cc1)NC(=O)[C@@H](CCC(=O)O)NC(=O)[C@@H](NC(=O)[C@H](Cc1ccccc1)NC(=O)[C@H](CCC(=O)O)NC(=O)C(C)(C)NC(=O)[C@H](CCC(N)=O)NC(=O)[C@H](C)NC(=O)[C@H](CCCCNC(=O)[C@@H](N)CCCCNC(=O)CC[C@H](NC(=O)CCCCCCCCCCCCC(=O)O)C(=O)O)NC(=O)[C@H](CCCN)NC(=O)[C@H](CC(=O)O)NC(=O)[C@H](CC(C)C)NC(=O)[C@](C)(CC(C)C)NC(=O)[C@@H](NC(=O)C(C)(C)NC(=O)[C@@H](NC(=O)[C@H](CC(=O)O)NC(=O)[C@H](CO)NC(=O)[C@@H](NC(=O)[C@](C)(Cc1ccccc1F)NC(=O)[C@@H](NC(=O)CNC(=O)[C@H](CCC(=O)O)NC(=O)C(C)(C)NC(=O)[C@@H](N)Cc1ccc(O)cc1)[C@@H](C)O)[C@@H](C)O)C(C)C)[C@@H](C)CC)[C@@H](C)CC)C(=O)N[C@@H](CCC(=O)O)C(=O)NCC(=O)NCC(=O)N[C@@H](CCCCNC(=O)[C@@H](N)CCCCNC(=O)CC[C@H](NC(=O)CCCCCCCCCCCCC(=O)O)C(=O)O)C(=O)N[C@@H](CO)C(=O)N[C@@H](CO)C(=O)NCC(=O)N[C@@H](C)C(=O)N1CCC[C@H]1C(=O)N1CCC[C@H]1C(=O)N1CCC[C@H]1C(=O)N[C@@H](CO)C(N)=O` [Example 164]: the Emax was found to be 93% on hGIPR (setting [1]); 95.8 ± 5.48% at hGIPR (HEK293, percent of maximal response to GIP(1-42)NH2, 37° C., 0.1% bovine casein, arithmetic mean, read-out: hGIPR Emax, % ± SEM); 95.4% on hGLP-1R (setting [3]); 93.8 ± 0.298% at hGLP-1R (HEK293, percent of maximal response to GLP-1(7-36)NH2, 37° C., 0.1% bovine casein, arithmetic mean, read-out: hGLP-1R Emax, % ± SEM). For the same molecule, the EC50 was 0.0464 nM at hGIPR (cAMP, incubated at 37° C., 0.1% bovine casein (no human serum albumin)); above 9950 nM at hGCGR (setting [2]); above 9950 nM on hGCGR (cAMP, incubated at 37° C., 0.1% bovine casein (no human serum albumin), read-out: hGCGR EC50, nM (SEM, n)); 26.6 nM at hGLP-1R (0.1% bovine casein and 1.0% human serum albumin, 37° C., read-out: hGLP-1R EC50, nM (SEM, n)).
For the molecule `CCCCCCCCCCCC(=O)N[C@@H](CCC(=O)NCCOCCOCC(=O)NCCOCCOCC(=O)NCCCC[C@H](NC(=O)[C@H](CO)NC(=O)[C@@H]1CCCN1C(=O)[C@@H]1CCCN1C(=O)[C@@H]1CCCN1C(=O)[C@H](C)NC(=O)CNC(=O)[C@H](CO)NC(=O)[C@H](CO)NC(=O)[C@@H]1CCCN1C(=O)CNC(=O)CNC(=O)[C@H](CCC(=O)O)NC(=O)[C@@H](NC(=O)[C@H](CC(C)C)NC(=O)[C@](C)(Cc1ccc(O)cc1)NC(=O)[C@@H](CCC(=O)O)NC(=O)[C@@H](NC(=O)[C@H](Cc1ccccc1)NC(=O)[C@H](CCC(=O)O)NC(=O)C(C)(C)NC(=O)[C@H](CCC(N)=O)NC(=O)[C@H](C)NC(=O)[C@H](CCCCNC(=O)COCCOCCNC(=O)COCCOCCNC(=O)CC[C@H](NC(=O)CCCCCCCCCCC)C(=O)O)NC(=O)[C@H](CCCN)NC(=O)[C@H](CC(=O)O)NC(=O)[C@H](CC(C)C)NC(=O)[C@](C)(CC(C)C)NC(=O)[C@@H](NC(=O)[C@H](CO)NC(=O)[C@H](Cc1ccc(OC)cc1)NC(=O)[C@H](CC(=O)O)NC(=O)[C@H](CO)NC(=O)[C@@H](NC(=O)[C@](C)(Cc1ccccc1F)NC(=O)[C@@H](NC(=O)CNC(=O)[C@H](CCC(=O)O)NC(=O)C(C)(C)NC(=O)[C@@H](N)Cc1ccc(O)cc1)[C@@H](C)O)[C@@H](C)O)[C@@H](C)CC)[C@@H](C)CC)[C@@H](C)CC)C(N)=O)C(=O)O` [Example 291], the EC50 at hGIPR (0.1% bovine casein and 1.0% human serum albumin, 37° C.) is 0.833 nM; on hGIPR (cAMP, 37° C., 0.1% bovine casein (no human serum albumin)) it was 0.012 nM; on hGCGR (setting [2]), above 9950 nM; at hGCGR (cAMP, 37° C., 0.1% bovine casein (no human serum albumin), read-out: hGCGR EC50, nM (SEM, n)), above 9950 nM; on hGLP-1R (cAMP, 37° C., 0.1% bovine casein (no human serum albumin), read-out: hGLP-1R EC50, nM (SEM, n)), 0.207 nM. Further, the maximal effect (Emax) at hGIPR (setting [1]) was found to be 92.9%; at hGLP-1R (setting [3]) it was 100%; at hGLP-1R (HEK293, cAMP, 37° C., 0.1% bovine casein, percent of maximal response to GLP-1(7-36)NH2, arithmetic mean, read-out: hGLP-1R Emax, % ± SEM), 97.6%.
For the molecule `CC[C@H](C)[C@H](NC(=O)[C@H](CC(C)C)NC(=O)[C@](C)(Cc1ccc(O)cc1)NC(=O)[C@H](CCCCNC(=O)COCCOCCNC(=O)COCCOCCNC(=O)CC[C@H](NC(=O)CCCCCCCCCCCCC(=O)O)C(=O)O)NC(=O)[C@@H](NC(=O)[C@H](Cc1ccccc1)NC(=O)[C@H](CCC(=O)O)NC(=O)C(C)(C)NC(=O)[C@H](CCC(N)=O)NC(=O)[C@H](C)NC(=O)[C@H](CCCCNC(=O)COCCOCCNC(=O)COCCOCCNC(=O)CC[C@H](NC(=O)CCCCCCCCCCCCC(=O)O)C(=O)O)NC(=O)[C@H](CCCN)NC(=O)[C@H](CC(=O)O)NC(=O)[C@H](CC(C)C)NC(=O)[C@](C)(CC(C)C)NC(=O)[C@@H](NC(=O)[C@H](CO)NC(=O)C1(NC(=O)[C@H](CC(=O)O)NC(=O)[C@H](CO)NC(=O)[C@@H](NC(=O)[C@](C)(Cc2ccccc2F)NC(=O)[C@@H](NC(=O)CNC(=O)[C@H](CCC(=O)O)NC(=O)C(C)(C)NC(=O)[C@@H](N)Cc2ccc(O)cc2)[C@@H](C)O)[C@@H](C)O)CCCC1)[C@@H](C)CC)[C@@H](C)CC)C(=O)N[C@@H](CCC(=O)O)C(=O)NCC(=O)NCC(=O)N1CCC[C@H]1C(=O)N[C@@H](CO)C(=O)N[C@@H](CO)C(=O)NCC(=O)N[C@@H](C)C(=O)N1CCC[C@H]1C(=O)N1CCC[C@H]1C(=O)N1CCC[C@H]1C(=O)N[C@@H](CO)C(N)=O` [Example 116], on hGIPR (setting [4]), the maximal effect (Emax) turned out to be 115%. Also, the half-maximal effective concentration (EC50) is above 9950 nM at hGCGR (setting [5]) and 0.197 nM at hGLP-1R (hGLP-1R EC50, nM (SEM, n), cAMP, incubated at 37° C., 0.1% bovine casein (no human serum albumin)).
As to `CC[C@H](C)[C@H](NC(=O)[C@H](CC(C)C)NC(=O)[C@](C)(Cc1ccc(O)cc1)NC(=O)[C@H](CCCCNC(=O)COCCOCCNC(=O)COCCOCCNC(=O)CC[C@H](NC(=O)CCCCCCCCCCCCC(=O)O)C(=O)O)NC(=O)[C@@H](NC(=O)[C@](C)(Cc1ccccc1)NC(=O)[C@H](CCC(=O)O)NC(=O)C(C)(C)NC(=O)[C@H](CCC(N)=O)NC(=O)[C@H](C)NC(=O)[C@H](CCCCNC(=O)COCCOCCNC(=O)COCCOCCNC(=O)CC[C@H](NC(=O)CCCCCCCCCCCCC(=O)O)C(=O)O)NC(=O)[C@H](CCCN)NC(=O)[C@H](CC(=O)O)NC(=O)[C@H](CC(C)C)NC(=O)[C@](C)(CC(C)C)NC(=O)[C@@H](NC(=O)C(C)(C)NC(=O)[C@H](Cc1ccncc1)NC(=O)[C@H](CC(=O)O)NC(=O)[C@H](CO)NC(=O)[C@@H](NC(=O)[C@](C)(Cc1ccccc1F)NC(=O)[C@@H](NC(=O)CNC(=O)[C@H](CCC(=O)O)NC(=O)C(C)(C)NC(=O)[C@@H](N)Cc1ccc(O)cc1)[C@@H](C)O)[C@@H](C)O)[C@@H](C)CC)[C@@H](C)CC)C(=O)N[C@@H](CCC(=O)O)C(=O)NCC(=O)NCC(=O)N1CCC[C@H]1C(=O)N[C@@H](CO)C(=O)N[C@@H](CO)C(=O)NCC(=O)N[C@@H](C)C(=O)N1CCC[C@H]1C(=O)N1CCC[C@H]1C(=O)N1CCC[C@H]1C(=O)N[C@@H](CO)C(N)=O` [Example 117], the Emax on hGIPR (setting [4]) was found to be 96.4%; on hGLP-1R (HEK293, read-out: hGLP-1R Emax, % ± SEM, percent of maximal response to GLP-1(7-36)NH2, 37° C., 0.1% bovine casein, arithmetic mean) it was 98.2%. Further, the concentration for a half-maximal effect (EC50) at hGCGR (setting [5]) was above 9950 nM.
